Biological target: Pyruvate dehydrogenase kinase 1 (PDK1) (Homo sapiens, UniProt Q15118)
Assay: ELISA-based in-well kinase assay: active PDK1 (Abcam) phosphorylating captured PDHA1 at Ser232
Type: biochemical

Sequence of Pyruvate dehydrogenase kinase 1 (PDK1) (Q15118 29-436): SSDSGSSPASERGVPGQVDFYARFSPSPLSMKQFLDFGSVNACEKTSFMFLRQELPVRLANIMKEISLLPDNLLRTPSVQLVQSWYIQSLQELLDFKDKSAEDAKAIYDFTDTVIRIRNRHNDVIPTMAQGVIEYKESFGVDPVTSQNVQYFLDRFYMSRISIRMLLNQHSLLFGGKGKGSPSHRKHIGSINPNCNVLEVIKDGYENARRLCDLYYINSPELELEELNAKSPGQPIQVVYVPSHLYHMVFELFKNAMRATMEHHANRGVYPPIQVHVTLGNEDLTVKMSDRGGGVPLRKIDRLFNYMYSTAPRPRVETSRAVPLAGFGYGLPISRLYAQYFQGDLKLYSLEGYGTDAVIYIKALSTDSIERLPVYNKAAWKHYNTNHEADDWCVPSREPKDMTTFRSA

## O=c1oc2ccccc2c(O)c1Cc1c(O)c2ccccc2oc1=O [DIC, dicumarol]
  IC50: 19.42 ± 0.032 µM

Source: paper PMC5472302, “Dicumarol inhibits PDK1 and targets multiple malignant behaviors of ovarian cancer cells” (PLoS ONE, 2017)
